Source: BigSolDB 2.1

c1ccc2[nH]c(-c3cscn3)nc2c1
solubility (mole fraction)
Details | 283.15 K | 288.15 K | 293.15 K | 298.15 K | 303.15 K | 308.15 K | 313.15 K | 318.15 K | 323.15 K
in acetonitrile | 0.000106 | 0.000125 | 0.00015 | 0.000177 | 0.000213 | 0.000259 | 0.0003 | 0.000353 | 0.000419
in isopropanol | 0.000682 | 0.000785 | 0.000915 | 0.00103 | 0.00121 | 0.00137 | 0.00155 | 0.00174 | 0.00193
in methanol | 0.0013 | 0.00147 | 0.00163 | 0.00181 | 0.002 | 0.00223 | 0.00248 | 0.00273 | 0.00297
in n-propanol | 0.00136 | 0.00156 | 0.00177 | 0.002 | 0.00225 | 0.00252 | 0.00282 | 0.00314 | 0.00347
in water | 2.04e-07 | 2.67e-07 | 3.42e-07 | 4.23e-07 | 5.25e-07 | 6.68e-07 | 8.6e-07 | 1.08e-06 | 1.36e-06
